Structures can show the parent of a compound that is named as a salt. Where two headings read alike, the source gives them in different places. Starred links: 1 amine or outer side, 2 acyl side, 3 side chain; linkers in the order of their positions; H or OH if unused. Positions of bridges follow the written chain, without caps; N, C: chain ends. Non-standard residues stand in square brackets, D forms with d. Residues, ends and D or L forms follow the SMILES beside them. Chains are numbered I, II in the order given. Actinocin(9to1) = Cc1c2oc3c(C)ccc(C(=O)[*:1])c3nc-2c(C(=O)[*:2])c(N)c1=O; NMeV = CN[C@H](C(=O)O)C(C)C; Sar = CNCC(=O)O
Molecular target: T1, human AspH (His6-AspH315–758) (Homo sapiens, UniProt Q12797)
T1 construct: N-Terminally His6-tagged human AspH315–758 (His6-AspH315–758) was produced in Escherichia coli BL21 (DE3) cells; made in house; host or cells: Escherichia coli BL21 (DE3), pET-28a(+) vector
T1 sequence (Q12797 315-758): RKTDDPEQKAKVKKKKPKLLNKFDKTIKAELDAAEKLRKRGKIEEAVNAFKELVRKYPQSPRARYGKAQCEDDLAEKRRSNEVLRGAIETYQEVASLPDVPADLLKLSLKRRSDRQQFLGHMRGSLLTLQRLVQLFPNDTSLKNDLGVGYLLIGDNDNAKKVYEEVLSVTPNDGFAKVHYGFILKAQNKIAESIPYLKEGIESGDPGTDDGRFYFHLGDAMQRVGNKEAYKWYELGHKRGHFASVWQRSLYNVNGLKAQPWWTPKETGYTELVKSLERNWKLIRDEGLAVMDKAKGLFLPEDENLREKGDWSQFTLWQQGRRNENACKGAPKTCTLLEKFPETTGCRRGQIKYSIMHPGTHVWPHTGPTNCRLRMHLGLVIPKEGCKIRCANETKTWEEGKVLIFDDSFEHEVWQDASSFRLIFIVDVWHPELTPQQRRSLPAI
Assay: SPE-MS AspH inhibition assay (hFX-CP101-119 substrate hydroxylation)
Type: biochemical

[1] = AspH-inhibitor screening, 384-well Plate 1
[2] = AspH-inhibitor screening, 384-well Plate 1, substrate conversion
[3] = AspH-inhibitor screening, Plate 1-duplicate
[4] = AspH-inhibitor screening, Plate 1-duplicate, substrate conversion

Row | Structure (SMILES) | Plate 1 (% inhibition) [1] [%] | Plate 1 (% conversion) [2] [%] | Plate 1-duplicate (% inhibition) [3] [%] | Plate 1-duplicate (% conversion) [4] [%] | Plate 1 (% conversion) [%] | Plate 1 (% inhibition) [%] | Plate 1-duplicate (% conversion) [%] | Plate 1-duplicate (% inhibition) [%]
1 | CC[C@@]1(O)C(=O)OCc2c1cc1n(c2=O)Cc2cc3ccccc3nc2-1 [Camptothecin] | 4.52 | 47.66 | 4.34 | 49.89 | – | – | – | –
2 | C=CC(=O)Nc1cc2c(Nc3ccc(F)c(Cl)c3)ncnc2cc1OCCCN1CCOCC1 [Canertinib] | -58.69 | 76.85 | -55.96 | 79.80 | – | – | – | –
3 | CCCCCOC(=O)Nc1nc(=O)n([C@@H]2O[C@H](C)[C@@H](O)[C@H]2O)cc1F [Capecitabine] | 3.89 | 47.95 | 10.65 | 46.76 | – | – | – | –
4 | N.N.O=C([O-])C1(C(=O)[O-])CCC1.[Pt+2] [Carboplatin] | 3.32 | 48.22 | 9.11 | 47.52 | – | – | – | –
5 | CC(C)C[C@H](NC(=O)[C@H](CCc1ccccc1)NC(=O)CN1CCOCC1)C(=O)N[C@@H](Cc1ccccc1)C(=O)N[C@@H](CC(C)C)C(=O)[C@@]1(C)CO1 [Carfilzomib] | -2.16 | 50.75 | -9.02 | 56.51 | – | – | – | –
6 | O=NN(CCCl)C(=O)NCCCl [Carmustine] | 1.59 | 49.02 | 7.94 | 48.11 | – | – | – | –
7 | Cc1ccc(-c2cc(C(F)(F)F)nn2-c2ccc(S(N)(=O)=O)cc2)cc1 [Celecoxib] | -8.28 | 53.57 | -15.35 | 59.65 | – | – | – | –
8 | Cc1cc(Nc2ncc(Cl)c(Nc3ccccc3S(=O)(=O)C(C)C)n2)c(OC(C)C)cc1C1CCNCC1 [Ceritinib] | -42.78 | 69.51 | -39.63 | 71.70 | – | – | – | –
9 | O=C(O)CCCc1ccc(N(CCCl)CCCl)cc1 [Chlorambucil] | 2.87 | 48.43 | 1.52 | 51.29 | – | – | – | –
10 | CCN(CC)CCCC(C)Nc1ccnc2cc(Cl)ccc12 (stereo not drawn) [Chloroquine diphosphate] | – | – | – | – | 43.64 | 13.23 | 46.45 | 11.28
11 | N.N.[Cl][Pt][Cl] [Cisplatin aq] | 26.89 | 37.33 | 26.45 | 38.92 | – | – | – | –
12 | Nc1nc(Cl)nc2c1ncn2[C@H]1C[C@H](O)[C@@H](CO)O1 [Cladribine] | 3.47 | 48.15 | 3.70 | 50.21 | – | – | – | –
13 | O=P1(N(CCCl)CCCl)NCCCO1 (stereo not drawn) [Clafen (Cyclophosphamide, Endoxan)] | – | – | – | – | 48.48 | 2.76 | 50.72 | 2.67
14 | Nc1nc(Cl)nc2c1ncn2[C@@H]1O[C@H](CO)[C@@H](O)[C@@H]1F [Clofarabine] | 6.71 | 46.65 | 3.66 | 50.22 | – | – | – | –
15 | CCN(CC)CCOc1ccc(C(=C(Cl)c2ccccc2)c2ccccc2)cc1 [Clomifene citrate] | 59.99 | 22.05 | 68.69 | 17.97 | – | – | – | –
16 | O=C(c1ccc(F)c(F)c1Nc1ccc(I)cc1F)N1CC(O)([C@@H]2CCCCN2)C1 [Cobimetinib] | -5.94 | 52.49 | -8.08 | 56.05 | – | – | – | –
17 | CC1(COc2ccc3c(c2)ncn3-c2ccc3cccc(N4CCC(N)CC4)c3n2)COC1 [Crenolanib] | -2.58 | 50.94 | -3.79 | 53.92 | – | – | – | –

Row | Structure (SMILES) | Plate 1 (% inhibition) [1] [%] | Plate 1 (% conversion) [2] [%] | Plate 1-duplicate (% inhibition) [3] [%] | Plate 1-duplicate (% conversion) [4] [%] | Plate 1 (% conversion) [%] | Plate 1 (% inhibition) [%] | Plate 1-duplicate (% conversion) [%] | Plate 1-duplicate (% inhibition) [%]
18 | C[C@@H](Oc1cc(-c2cnn(C3CCNCC3)c2)cnc1N)c1c(Cl)ccc(F)c1Cl [Crizotinib] | -6.35 | 52.68 | -0.27 | 52.18 | – | – | – | –
19 | O=P1(N(CCCl)CCCl)NCCCO1 (stereo not drawn) [Cyclophosphamide] | – | – | – | – | 44.96 | 10.37 | 48.17 | 7.81
20 | Nc1ccn([C@@H]2O[C@H](CO)[C@@H](O)[C@@H]2O)c(=O)n1 [Cytarabine hydrochloride] | 2.14 | 48.76 | 3.50 | 50.30 | – | – | – | –
21 | CNC(=O)c1cc(Oc2ccc(NC(=O)Nc3cc(C(C)(C)C)nn3-c3ccc4ncccc4c3)c(F)c2)ccn1 [DCC-2036_Rebastinib] | 0.16 | 49.67 | 3.62 | 50.25 | – | – | – | –
22 | CC(C)(C)c1nc(-c2cccc(NS(=O)(=O)c3c(F)cccc3F)c2F)c(-c2ccnc(N)n2)s1.CS(=O)(=O)O [Dabrafenib Mesylate] | 21.60 | 39.78 | 12.13 | 46.02 | – | – | – | –
23 | CN(C)/N=N/c1[nH]cnc1C(N)=O [Dacarbazine] | -0.11 | 49.80 | 7.93 | 48.11 | – | – | – | –
24 | COc1cc2ncnc(Nc3ccc(F)c(Cl)c3)c2cc1NC(=O)/C=C/CN1CCCCC1.O [Dacomitinib (monohydrate) (PF-00299804)] | -68.38 | 81.33 | -15.02 | 59.49 | – | – | – | –
25 | Cc1c2oc3c(C)ccc(C(=O)N[C@@H]4C(=O)N[C@H](C(C)C)C(=O)N5CCC[C@H]5C(=O)N(C)CC(=O)N(C)[C@@H](C(C)C)C(=O)O[C@@H]4C)c3nc-2c(C(=O)N[C@@H]2C(=O)N[C@H](C(C)C)C(=O)N3CCC[C@H]3C(=O)N(C)CC(=O)N(C)[C@@H](C(C)C)C(=O)O[C@@H]2C)c(N)c1=O [Dactinomycin] (I: T[dV]P[Sar][NMeV] / II: T[dV]P[Sar][NMeV]; ester I:1-I:C, II:1-II:C; linker I:N-II:N via Actinocin(9to1)) | -0.066 | 49.78 | -9.41 | 56.71 | – | – | – | –
26 | Cc1nc(Nc2ncc(C(=O)Nc3c(C)cccc3Cl)s2)cc(N2CCN(CCO)CC2)n1 [Dasatinib] | -20.82 | 59.36 | -21.12 | 62.52 | – | – | – | –
27 | COc1cccc2c1C(=O)c1c(O)c3c(c(O)c1C2=O)C[C@@](O)(C(C)=O)C[C@@H]3O[C@H]1C[C@H](N)[C@H](O)[C@H](C)O1 [Daunorubicin hydrochloride] | -28.45 | 62.89 | -40.01 | 71.89 | – | – | – | –
28 | Nc1ncn([C@H]2C[C@H](O)[C@@H](CO)O2)c(=O)n1 [Decitabine (Dacogen)] | 4.17 | 47.83 | 0.31 | 51.89 | – | – | – | –
29 | CC(=O)N(O)CCCCCNC(=O)CCC(=O)N(O)CCCCCNC(=O)CCC(=O)N(O)CCCCCN [Deferoxamine mesylate] | 14.63 | 43.00 | 7.26 | 48.44 | – | – | – | –
30 | C[C@@H]1C[C@H]2[C@@H]3CCC4=CC(=O)C=C[C@]4(C)[C@@]3(F)[C@@H](O)C[C@]2(C)[C@@]1(O)C(=O)CO [Dexamethasone (Decadron)] | 0.59 | 49.48 | 1.33 | 51.38 | – | – | – | –
31 | C[C@@H](CN1CC(=O)NC(=O)C1)N1CC(=O)NC(=O)C1 [Dexrazoxane] | 16.70 | 42.04 | 14.98 | 44.61 | – | – | – | –
32 | CCc1cnn2c(NCc3ccc[n+]([O-])c3)cc(N3CCCC[C@H]3CCO)nc12 [Dinaciclib (SCH727965)] | 1.39 | 49.11 | 2.62 | 50.74 | – | – | – | –
33 | CC(=O)O[C@@]12CO[C@@H]1C[C@H](O)[C@@]1(C)C(=O)[C@H](O)C3=C(C)[C@@H](OC(=O)[C@H](O)[C@@H](NC(=O)OC(C)(C)C)c4ccccc4)C[C@@](O)([C@@H](OC(=O)c4ccccc4)[C@H]21)C3(C)C [Docetaxel] | -5.60 | 52.34 | 2.03 | 51.03 | – | – | – | –

Reference: article PMC7588595, “Small-molecule active pharmaceutical ingredients of approved cancer therapeutics inhibit human aspartate/asparagine-β-hydroxylase” (Bioorganic & Medicinal Chemistry, 2020)
